Drawing on PubChem BioAssay AID268 (DTP/NCI, 2004), this text covers T/C for 18 compounds.

The test system of this test is CD2F1 mice, P1798 lymphosarcoma sc, tumor weight T/C. Description: NCI In Vivo Anticancer Drug Screen. Data for tumor model P1798 Lymphosarcoma (subcutaneous) in CD2F1 (CDF1) mice. The note with it: endpoint: mean tumor weight, higher = larger tumour. The procedure: The antitumor activity of compounds was measured in mice bearing transplantable tumors. Survival or tumor size were measured and the results are expressed as the measurement made in the treated group (T) divided by the measurement made in the vehicle treated control group (C). The tumor model used in this assay is P1798 Lymphosarcoma (subcutaneous) in CD2F1 (CDF1) mice

Setting [1] is: dose: 50.0 mg/kg/injection, schedule: Q01DX010 (ip), vehicle: saline.
[2] abbreviates: dose: 100.0 mg/kg/injection, schedule: Q01DX010 (ip), vehicle: saline.
The mark [3] stands for this setting: dose: 200.0 mg/kg/injection, schedule: Q01DX010 (ip), vehicle: saline.
Where [4] appears, read: dose: 400.0 mg/kg/injection, schedule: Q01DX010 (ip), vehicle: saline.
The mark [5] stands for this setting: dose: 50.0 mg/kg/injection, schedule: Q01DX010 (sc), vehicle: steriod suspending solution.
Where [6] appears, read: dose: 125.0 mg/kg/injection, schedule: Q01DX010 (sc), vehicle: steriod suspending solution.
[7] abbreviates: dose: 250.0 mg/kg/injection, schedule: Q01DX010 (sc), vehicle: steriod suspending solution.
Setting [8] is: dose: 500.0 mg/kg/injection, schedule: Q01DX010 (sc), vehicle: steriod suspending solution.
[9] abbreviates: dose: 1000.0 mg/kg/injection, schedule: Q01DX010 (sc), vehicle: steriod suspending solution.
The mark [10] stands for this setting: dose: 3.13 mg/kg/injection, schedule: Q01DX010 (ip), vehicle: saline.
The mark [11] stands for this setting: dose: 6.25 mg/kg/injection, schedule: Q01DX010 (ip), vehicle: saline.
Setting [12] is: dose: 12.5 mg/kg/injection, schedule: Q01DX010 (ip), vehicle: saline.
[13] abbreviates: dose: 2.0 mg/kg/injection, schedule: Q01DX010 (ip), vehicle: saline.
Where [14] appears, read: dose: 25.0 mg/kg/injection, schedule: Q01DX010 (ip), vehicle: saline.

Values joined by “and” are separate entries in the source; they are usually repeats but may differ in a detail not shown here. Equal entries are not always repeated.

The T/C is the result in the treated group divided by that in the control group, in per cent. As for `COCCOC`, the T/C (dose: 300.0 mg/kg/injection, schedule: Q01DX010 (ip), vehicle: saline) was 100 % of control; the T/C (dose: 450.0 mg/kg/injection, schedule: Q01DX010 (ip), vehicle: saline) was 62 % of control; the T/C (dose: 675.0 mg/kg/injection, schedule: Q01DX010 (ip), vehicle: saline) was 60 % of control.
In the case of `CN(C)/N=N/c1nc[nH]c1C(N)=O`, the T/C runs as follows: under setting [1], 58 % of control; under setting [2], 47 % of control; under setting [3], 7 % of control; under setting [4], 3 % of control.
Regarding `Nc1nc(=S)c2[nH]cnc2[nH]1`, the T/C reads like this: (dose: 0.63 mg/kg/injection, schedule: Q01DX010 (ip), vehicle: saline) 74 % of control; (dose: 1.25 mg/kg/injection, schedule: Q01DX010 (ip), vehicle: saline) 51 % of control and 72 % of control; (dose: 2.5 mg/kg/injection, schedule: Q01DX010 (ip), vehicle: saline) 44 % of control.
`C[C@H]1C[C@@H]2[C@H]([C@@H](O)C[C@@]3(C)[C@H]2CC[C@]3(O)C(=O)CO)[C@@]2(C)C=CC(=O)C=C12`: the T/C under setting [5] was 7 % of control.
With `CCC(=O)O[C@H]1CC[C@H]2[C@@H]3CC[C@H]4CC(=O)[C@H](C)C[C@]4(C)[C@H]3CC[C@]12C`, the T/C runs as follows: (dose: 15.6 mg/kg/injection, schedule: Q01DX010 (sc), vehicle: steriod suspending solution) 110 % of control; (dose: 31.3 mg/kg/injection, schedule: Q01DX010 (sc), vehicle: steriod suspending solution) 120 % of control; (dose: 62.5 mg/kg/injection, schedule: Q01DX010 (sc), vehicle: steriod suspending solution) 112 % of control; under setting [6], 91 % of control and 77 % of control; under setting [7], 88 % of control; under setting [8], 96 % of control. For the same compound, the T/C under setting [9] was 88 % of control.
In the case of `C[C@H]1C(=O)O[C@@H]2CCN3CC=C(COC(=O)[C@](C)(O)[C@@]1(C)O)[C@H]23`, the T/C is 74 % of control and 79 % of control under setting [10]; 77 % of control under setting [11]; 62 % of control and 80 % of control under setting [12].
For the compound `NC(=O)NO`, the T/C by setting is: (dose: 60.0 mg/kg/injection, schedule: Q01DX010 (ip), vehicle: saline) 60 % of control; (dose: 90.0 mg/kg/injection, schedule: Q01DX010 (ip), vehicle: saline) 54 % of control; (dose: 135.0 mg/kg/injection, schedule: Q01DX010 (ip), vehicle: saline) 39 % of control; under setting [3], 12 % of control.
As to `CC(=O)Nc1c(Cl)cc2c(c1Cl)Cc1cc([N+](=O)[O-])ccc1-2`, the T/C is, setting by setting: (dose: 15.0 mg/kg/injection, schedule: Q01DX011 (ip), vehicle: carboxymethylcellulose (CMC)) 85 % of control; (dose: 65.0 mg/kg/injection, schedule: Q01DX011 (ip), vehicle: carboxymethylcellulose (CMC)) 108 % of control.
On to `C=C1C[C@H]2[C@@H]3C=C(C)C4=CC(=O)CC[C@]4(C)[C@H]3CC[C@]2(C)[C@@]1(OC(C)=O)C(C)=O`, for which the T/C (dose: 12.5 mg/kg/injection, schedule: Q01DX010 (sc), vehicle: steriod suspending solution) is 109 % of control and 116 % of control; the T/C (dose: 25.0 mg/kg/injection, schedule: Q01DX010 (sc), vehicle: steriod suspending solution) is 84 % of control; the T/C under setting [5] was 120 % of control; the T/C (dose: 125.0 mg/kg/injection, schedule: Q01DX001 (sc), vehicle: steriod suspending solution) was 87 % of control; the T/C under setting [6] was 124 % of control; the T/C (dose: 125.0 mg/kg/injection, schedule: Q02DX005 (sc), vehicle: steriod suspending solution) was 117 % of control. Besides, the T/C reads like this: (dose: 250.0 mg/kg/injection, schedule: Q01DX001 (sc), vehicle: steriod suspending solution) 151 % of control and 160 % of control; under setting [7], 76 % of control; (dose: 250.0 mg/kg/injection, schedule: Q02DX005 (sc), vehicle: steriod suspending solution) 110 % of control; (dose: 500.0 mg/kg/injection, schedule: Q01DX001 (sc), vehicle: steriod suspending solution) 74 % of control and 80 % of control; under setting [8], 85 % of control; (dose: 500.0 mg/kg/injection, schedule: Q02DX005 (sc), vehicle: steriod suspending solution) 96 % of control. Where the note is “dose: 1000.0 mg/kg/injection, schedule: Q01DX001 (sc), vehicle: steriod suspending solution”, the T/C was 100 % of control and 112 % of control.
Turning to `N#Cc1cn(C2OC(CO)C(O)C2O)c2ncnc(N)c12` (centres undefined), the T/C (dose: 0.06 mg/kg/injection, schedule: Q01DX010 (ip), vehicle: saline) is 86 % of control; the T/C (dose: 0.12 mg/kg/injection, schedule: Q01DX010 (ip), vehicle: saline) is 61 % of control; the T/C (dose: 0.25 mg/kg/injection, schedule: Q01DX010 (ip), vehicle: saline) was 69 % of control and 76 % of control; the T/C (dose: 0.5 mg/kg/injection, schedule: Q01DX010 (ip), vehicle: saline) was 72 % of control; the T/C (dose: 1.0 mg/kg/injection, schedule: Q01DX010 (ip), vehicle: saline) is 68 % of control; the T/C under setting [13] was 62 % of control.
Regarding `NC(CCSCc1ccc(N(CCCl)CCCl)cc1)C(=O)O` (centres undefined), the T/C was 108 % of control (dose: 4.5 mg/kg/injection, schedule: Q01DX010 (ip), vehicle: saline); 86 % of control (dose: 9.0 mg/kg/injection, schedule: Q01DX010 (ip), vehicle: saline); 98 % of control (dose: 18.0 mg/kg/injection, schedule: Q01DX010 (ip), vehicle: saline); 93 % of control (dose: 36.0 mg/kg/injection, schedule: Q01DX010 (ip), vehicle: saline).
Consider `CC1(O)CCC2C3CCC4=CC(=O)CCC4C3CCC21C` (centres undefined), for which the T/C under setting [6] is 83 % of control, the T/C under setting [7] is 81 % of control, the T/C under setting [8] was 80 % of control and the T/C under setting [9] is 67 % of control.
Take `Nc1ncnc2[nH]ncc12`: the T/C is 84 % of control and 88 % of control (dose: 1.5 mg/kg/injection, schedule: Q01DX010 (ip), vehicle: saline); 73 % of control and 88 % of control (dose: 3.0 mg/kg/injection, schedule: Q01DX010 (ip), vehicle: saline); 43 % of control (dose: 12.0 mg/kg/injection, schedule: Q01DX010 (ip), vehicle: saline).
Consider `O=C(Nc1ccc(NC2=NCCN2)cc1)c1ccc(C(=O)Nc2ccc(NC3=NCCN3)cc2)cc1`, for which the T/C runs as follows: under setting [13], 78 % of control; (dose: 4.0 mg/kg/injection, schedule: Q01DX010 (ip), vehicle: saline) 81 % of control; (dose: 8.0 mg/kg/injection, schedule: Q01DX010 (ip), vehicle: saline) 36 % of control.
In the case of `S=c1nc[nH]c2nc[nH]c12`, the T/C reads like this: (dose: 10.0 mg/kg/injection, schedule: Q01DX010 (ip), vehicle: alkali diluted with saline) 90 % of control; (dose: 80.0 mg/kg/injection, schedule: Q01DX010 (ip), vehicle: alkali diluted with saline) 35 % of control.
For the compound `O=C(C(=O)N1CC1)c1c[nH]c2ccccc12`, the T/C is, setting by setting: under setting [10], 90 % of control; under setting [11], 105 % of control; under setting [12], 92 % of control and 99 % of control; under setting [14], 108 % of control.
On to `NCCCC(N)C(=O)NCCCCCCCCCCNC(=O)C(N)CCCN` (centres undefined), for which the T/C was 98 % of control under setting [11], 86 % of control under setting [12], 92 % of control under setting [14] and 65 % of control under setting [1].
As to `O=C(NCCCCCCNC(=O)OCc1ccccc1)OCc1ccccc1`, the T/C was 102 % of control under setting [1], 119 % of control under setting [2], 94 % of control under setting [3] and 123 % of control under setting [4].
